Data: article PMC10789823, “Synthesis, structural characterizations, in vitro biological evaluation and computational investigations of pyrazole derivatives as potential antidiabetic and antioxidant agents” (Scientific Reports, 2024)
“And” between values parts separate entries of the source, which are not always exact repeats. Equal values may be shown once. Read-outs that look alike come from different tables or passages of the source.

Legend:
[1] = biological target: α-glucosidase from Saccharomyces cerevisiae (Saccharomyces cerevisiae, UniProt P53341); test: biochemical
Method: (§1) The α-glucosidase and α-amylase inhibitory activities of compounds Pyz-1 and Pyz-2 were determined using the method described in our previous works[48],[49].
(§2) All other reagents and standards were of analytical reagent grade.
The α-glucosidase inhibitory activity was performed by using (ρ-nitrophenyl-α-D-glucopyranoside) as a substrate according to the method described by (Kee et al., 2013),with minor modifications. The α-glucosidase method is based on the inhibition of the enzyme. α-glucosidase, which hydrolyses (4-Nitrophenyl-α-d-glucopyranoside) to α-d-glucopyranose and P-nitrophenol of yellow color. The target compound was dissolved in DMSO and all the evaluated samples were dissolved in tampon phosphate at a series of concentrations. A mixture of 150 µl of the sample and 100 µl of PBS (pH = 6.7) containing the α- glucosidase enzyme solution (0.1U/ml) was incubated at 37 ° C for 10 min, after incubation, 200µl of pNPG (1 mM) was added to the mixture. The mixtures were incubated at 37 °C for 30 min. Then 1 ml Na2CO3 (0.1 M) was added to stop the reaction. The absorbance was measured at 405 nm. The results were expressed in percentage of inhibition according to the following formula: […]
The same reaction mixture without α-glucosidase was used as negative control.

[2] = biological target: α-amylase from Bacillus licheniformis (Bacillus licheniformis, UniProt P06278); test: biochemical; conditions: mean ± standard deviation (n = 3)
Method: as §1, §2
The α-amylase assay was performed by reacting various concentrations of compounds with α-amylase and starch solution by following the DNSA method with minor modifications (Hashim et al., 2013). The evaluated samples were dissolved in tampon phosphate with various concentrations. The sample solution (10μL) was mixed with 240μL (sodium phosphate buffer 0.02M pH6.9) containing α-amylase (240U/mL), and incubated at 37°C for 20 min. After pre-incubation, 250 µL of 1% starch solution were added to each tube and incubated for 15 min. 1ml of dinitrosalicylic acid was added to stop the reaction, then incubate the solution in a water bath at 90°C for 10 min. The mixture was diluted with 1 mL deionized water and the absorbance (Abs) was measured at 540 nm.
The IC50 values were determined by the percentage of inhibitions at different concentrations.

ABTS assay = conditions: for IC50: called SC50, mean ± standard deviation (n = 3)
Method: (§3) The antioxidant activities of the title compound were determined in vitro by DPPH, ABTS, FRAP and hydrogen peroxide activity (H2O2) methods according to the procedures described in our previous works.
The ABTS assay was performed as previously described by (Tuberoso et al., 2013). ABTS+ radical was generated by oxidation of ABTS with potassium persulfate. The blue-green ABTS was produced through the reaction between 2 mM ABTS and 70 mM potassium persulfate in water. The mixture was left to stand in the dark for 12–16 h before use. The ABTS+ solution as diluted with methanol to an absorbance of 0.700 ± 0.005 at 734 nm. Then 2 mL of diluted ABTS solution were mixed with 100 μL of samples and absorbance was measured after 1 min incubation at room temperature. A standard curve was obtained by using Ascorbic acid as standard solution.

[3] = Ferric reducing power assay (FRAP); conditions: mean ± standard deviation (n = 3)
Method: as §3
The ferric ion (Fe^3+) reducing power assay was performed as previously described by (Amarowicz et al., 2004) with minor modifications. Briefly, 1 mL of the samples were mixed with 2.5 mL of 0.2 M sodium phosphate buffer (pH 6.6) and 2.5 mL of 1% potassium ferricyanide. The mixtures were incubated in a […] water bath at 50 °C for 20 min. Then, 2.5 mL of 10% trichloroacetic acid was added and centrifuged at 3000 rpm for 10 min. Finally, 2.5 mL of the supernatant were mixed with 2.5 mL distilled water and 0.5 mL FeCl3 solution (0.1%, w/v). The absorbance was measured at 700 nm and the results were expressed as IC50.

xanthine oxidase = xanthine oxidase (Homo sapiens, UniProt P47989); test: Xanthine oxidase inhibition assay (XO); assay type: biochemical; conditions: mean ± standard deviation (n = 3)
Method: The xanthine oxidase inhibitory activity of Pyz-1 and Pyz-2 was performed following the method described by Kostić et al.[50], with minor modifications. The samples were prepared at series of concentrations. 1.95 ml of 5 mM phosphate buffer pH 7.5 and 50 µl of enzyme solution was added to the mixtures. After pre-incubation at 25 °C for 15 min. 1 ml of substrate was added.

[4] = Hydrogen peroxide activity (H2O2); conditions: mean ± standard deviation (n = 3)
Method: as §3
The hydrogen-donating activity, measured utilizing hydrogen peroxide radicals as the hydrogen acceptor was performed as previously described by (Muruhan et al., 2013) with minor modifications. Briefly a solution of hydrogen peroxide (40 mM) was prepared in phosphate buffer (pH 7.4). Different concentrations of the prepared compounds (62.5, 31.25, 15.62, 7.81 and 3.9 μM) were added to a hydrogen peroxide solution (0.6 mL, 40 mM). The absorbance of hydrogen peroxide at 230 nm was determined after 10 min against a blank solution containing phosphate buffer without hydrogen peroxide (or ascorbic acid as the control). The hydrogen peroxide percentage activity was then calculated using the following equation: […]

[5] = DPPH radical scavenging activity assay; conditions: called SC50; mean ± standard deviation (n = 3)
Method: as §3
The DPPH radical activity assay was performed following (Huang et al., 2011) with minor modification. The method using the stable free radical 2,2-diphenyl-1-picrylhydrazyl (DPPH) is based upon the reduction of DPPH free radical. Different concentrations of the prepared compounds (500, 250, 125, 62.5, 31.25 µM) were tested. The DPPH solution was prepared by dissolving 3,9mg of DPPH in 50 mL of the methanol. Then, 50µL of each concentration was added to 1,2ml of methanol and 250µL of the prepared DPPH solution […]. The reaction mixture incubated in the dark for 30 min. The control was prepared by adding 1,25 mL of methanol to 250 µL of DPPH. Ascorbic acid was used as the standard. The absorbances of solutions were spectrophotometrically examined at 517 nm. The radical activity is expressed as inhibition ratio of initial concentration of DPPH radical and is calculated according to the formula: […]
Where AbsDPPH is the absorbance of DPPH radical and Abssample is the absorbance in the presence of sample.

[6] = mean ± standard deviation (n = 3), read-out: IC50 α-Glucosidase

α-amylase from Bacillus licheniformis, sequence (P06278 30-512): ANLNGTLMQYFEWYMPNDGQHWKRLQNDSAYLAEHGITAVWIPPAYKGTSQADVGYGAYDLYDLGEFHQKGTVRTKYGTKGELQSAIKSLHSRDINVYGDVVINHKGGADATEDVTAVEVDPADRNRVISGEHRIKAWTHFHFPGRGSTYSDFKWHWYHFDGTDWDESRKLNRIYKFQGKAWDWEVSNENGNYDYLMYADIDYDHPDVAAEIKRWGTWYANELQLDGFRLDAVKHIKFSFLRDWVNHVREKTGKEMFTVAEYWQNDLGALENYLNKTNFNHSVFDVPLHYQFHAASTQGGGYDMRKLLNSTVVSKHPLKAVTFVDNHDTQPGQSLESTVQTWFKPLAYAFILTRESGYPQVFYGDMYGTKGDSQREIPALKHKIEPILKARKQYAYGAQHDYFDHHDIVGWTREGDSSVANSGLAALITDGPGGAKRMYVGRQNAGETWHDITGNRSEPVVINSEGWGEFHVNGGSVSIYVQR
α-glucosidase from Saccharomyces cerevisiae, sequence (P53341 whole entry): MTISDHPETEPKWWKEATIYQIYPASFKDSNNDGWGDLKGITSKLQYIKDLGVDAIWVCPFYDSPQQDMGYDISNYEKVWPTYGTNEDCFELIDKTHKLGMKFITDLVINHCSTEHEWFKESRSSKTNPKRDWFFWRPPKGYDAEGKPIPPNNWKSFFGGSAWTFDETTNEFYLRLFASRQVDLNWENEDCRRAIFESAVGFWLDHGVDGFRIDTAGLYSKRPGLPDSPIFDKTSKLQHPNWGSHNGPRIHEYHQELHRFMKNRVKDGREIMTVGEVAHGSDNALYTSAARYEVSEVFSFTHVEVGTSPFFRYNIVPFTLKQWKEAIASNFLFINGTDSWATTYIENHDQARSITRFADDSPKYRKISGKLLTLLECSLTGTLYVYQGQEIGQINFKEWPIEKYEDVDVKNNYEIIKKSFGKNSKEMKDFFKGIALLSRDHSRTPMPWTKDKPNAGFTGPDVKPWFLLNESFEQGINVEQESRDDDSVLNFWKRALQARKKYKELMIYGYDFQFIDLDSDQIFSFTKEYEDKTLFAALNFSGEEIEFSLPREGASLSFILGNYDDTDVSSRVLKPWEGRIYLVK
xanthine oxidase, sequence (P47989 whole entry, species assumed): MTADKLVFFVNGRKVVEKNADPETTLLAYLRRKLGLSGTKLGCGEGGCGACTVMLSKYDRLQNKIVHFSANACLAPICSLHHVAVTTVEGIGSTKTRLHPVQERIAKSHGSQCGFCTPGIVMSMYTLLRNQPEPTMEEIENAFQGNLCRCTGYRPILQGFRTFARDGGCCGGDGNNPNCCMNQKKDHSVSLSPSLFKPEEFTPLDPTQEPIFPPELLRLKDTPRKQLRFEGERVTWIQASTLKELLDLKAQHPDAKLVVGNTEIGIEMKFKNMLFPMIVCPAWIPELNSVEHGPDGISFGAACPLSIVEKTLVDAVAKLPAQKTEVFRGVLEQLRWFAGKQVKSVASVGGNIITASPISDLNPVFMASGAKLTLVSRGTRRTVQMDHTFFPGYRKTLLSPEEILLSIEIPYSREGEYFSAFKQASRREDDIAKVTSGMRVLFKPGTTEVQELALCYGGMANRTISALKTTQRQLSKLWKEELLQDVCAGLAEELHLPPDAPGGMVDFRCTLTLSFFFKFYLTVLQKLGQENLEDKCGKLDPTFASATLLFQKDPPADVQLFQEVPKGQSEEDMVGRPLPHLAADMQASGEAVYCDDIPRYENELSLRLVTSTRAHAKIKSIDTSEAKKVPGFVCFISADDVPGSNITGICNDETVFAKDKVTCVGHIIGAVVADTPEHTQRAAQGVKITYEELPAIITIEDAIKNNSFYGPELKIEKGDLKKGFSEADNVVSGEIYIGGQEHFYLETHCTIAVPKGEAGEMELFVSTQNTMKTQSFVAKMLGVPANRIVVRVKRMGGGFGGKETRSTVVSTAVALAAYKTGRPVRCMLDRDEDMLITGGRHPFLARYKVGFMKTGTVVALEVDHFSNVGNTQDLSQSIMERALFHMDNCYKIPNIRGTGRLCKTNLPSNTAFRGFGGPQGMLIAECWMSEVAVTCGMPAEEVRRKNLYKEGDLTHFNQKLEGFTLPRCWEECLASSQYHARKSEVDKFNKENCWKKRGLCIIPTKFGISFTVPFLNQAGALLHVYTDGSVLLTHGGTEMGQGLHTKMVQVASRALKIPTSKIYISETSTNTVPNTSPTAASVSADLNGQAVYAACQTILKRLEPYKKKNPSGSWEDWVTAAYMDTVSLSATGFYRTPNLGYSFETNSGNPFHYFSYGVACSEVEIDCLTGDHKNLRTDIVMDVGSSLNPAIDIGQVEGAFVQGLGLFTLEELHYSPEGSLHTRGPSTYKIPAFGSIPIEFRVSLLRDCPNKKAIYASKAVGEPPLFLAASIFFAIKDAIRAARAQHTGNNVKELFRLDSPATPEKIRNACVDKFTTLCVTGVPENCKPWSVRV

Row | Structure (SMILES) | IC50 [1, 6] [µM] | IC50 [2] | IC50 (ABTS assay) [µM] | ABTS scavenging activity relative to Pyz-1 (ABTS assay; ratio of SC50 values, versus Pyz-1) [fold] | IC50 [3] [µM] | IC50 (xanthine oxidase) [µM] | IC50 [4] [µM] | IC50 [5] [µM] | IC50 [1] [µM]
1 | Cc1cc(C(=O)NN)[nH]n1 [Compound 1, 5-methyl-1H-pyrazole-3-carbohydrazide] | 279 ± 4.03 | > 500 µM |  |  |  |  |  |  | 
2 | Cc1cc(-c2nnc(S)n2N)n[nH]1 [Pyz-2, 4-amino-5-(5-methyl-1H-pyrazol-3-yl)-4H-1,2,4-triazole-3-thiol] | 95.85 ± 0.92 | 119 µM and 120 µM | 20.5 ± 0.87 | 3.88 | 62.62 ± 0.49 | 10.8 ± 0.54 | 24.8 ± 1.23 | 139 ± 1.45 | 
3 | Cc1cc(C(=O)NNC(=O)Nc2ccccc2)n[nH]1 [Pyz-1, 2-(5-methyl-1H-pyrazole-3-carbonyl)-N-phenylhydrazine-1-carboxamide] |  | 120 µM and 119 µM | 79.77 ± 0.45 |  | 100.2 ± 0.79 | 24.3 ± 0.78 | 31.5 ± 0.92 | 238.5 ± 1.12 | 75.62 ± 0.56
4 | O=C1O[C@H]([C@@H](O)CO)C(O)=C1O [Ascorbic acid, reference compound] |  |  | 22.5 ± 0.59 |  | 88.12 ± 0.23 |  | 7.45 ± 1.11 | 78.11 ± 0.68 | 
